In brackets after ≈: the same amount, converted by molar mass. Several values for one entry are separate records, joined by “and”; a condition that tells them apart may be missing. Identical values can stand only once. Like-named read-outs stand apart in the source and are kept apart here.
Experiments:
[1] = molecular target: T1, E. coli DNA gyrase (Escherichia coli (strain K12), UniProt P0AES4+P0AES6); test: Agarose gel-based DNA gyrase inhibition assay; type: biochemical; details: for IC50: Table 8, read-out: IC50 Gyrase Gel-based
Procedure: 100 ng of DNA gyrase was used to supercoil the rx pAB1 in the presence of different concentrations of a gyrase inhibitor. […] Samples were analyzed by electrophoresis in 1% w/v agarose gels followed by ethidium bromide staining and photographed under UV light.

[2] = molecular target: T1, E. coli DNA gyrase; test: SDFQ-based DNA gyrase inhibition assay; type: biochemical; details: Table 8; read-out: IC50 Gyrase SDFQ
Procedure: 100 ng of DNA gyrase was used to supercoil the rx pAB1_FL905 in the presence of different concentrations of a gyrase inhibitor. […] The IC50 values were estimated by nonlinear fitting of the following equation: […]
where F is the fluorescence intensity at the x concentration of an min inhibitor. Fmax and Fmin are the maximum and minimum fluorescence of the DNA sample, respectively. P is a slope parameter.

[3] = molecular target: T2, E. coli DNA topoisomerase IV (Escherichia coli (strain K12), UniProt P0AFI2+P20083); test: E. coli DNA topoisomerase IV relaxation assay (gel-based); type: biochemical; details: for IC50: IC50 Topoisomerase IV Gel-based, Table 8
T2 sequence (P0AFI2 whole entry, looked up): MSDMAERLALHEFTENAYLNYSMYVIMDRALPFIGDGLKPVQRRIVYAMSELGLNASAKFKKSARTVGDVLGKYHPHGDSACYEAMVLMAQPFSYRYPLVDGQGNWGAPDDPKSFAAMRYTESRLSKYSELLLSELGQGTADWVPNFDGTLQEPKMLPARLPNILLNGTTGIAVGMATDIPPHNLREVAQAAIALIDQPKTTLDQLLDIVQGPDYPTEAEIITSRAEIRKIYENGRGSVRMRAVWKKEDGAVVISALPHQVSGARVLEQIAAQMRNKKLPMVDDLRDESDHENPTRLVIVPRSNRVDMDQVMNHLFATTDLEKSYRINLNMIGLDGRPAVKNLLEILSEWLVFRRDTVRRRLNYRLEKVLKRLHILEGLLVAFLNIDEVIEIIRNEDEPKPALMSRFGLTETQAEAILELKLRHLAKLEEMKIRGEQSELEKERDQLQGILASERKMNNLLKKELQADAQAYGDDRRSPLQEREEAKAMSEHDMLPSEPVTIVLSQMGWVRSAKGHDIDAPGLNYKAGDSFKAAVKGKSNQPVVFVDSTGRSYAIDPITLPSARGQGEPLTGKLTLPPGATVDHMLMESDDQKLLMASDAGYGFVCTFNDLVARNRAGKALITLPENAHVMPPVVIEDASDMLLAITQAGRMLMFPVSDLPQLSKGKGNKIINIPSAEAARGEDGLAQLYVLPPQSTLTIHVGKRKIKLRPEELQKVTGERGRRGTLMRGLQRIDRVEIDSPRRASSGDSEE
T2 sequence (P20083 whole entry, looked up): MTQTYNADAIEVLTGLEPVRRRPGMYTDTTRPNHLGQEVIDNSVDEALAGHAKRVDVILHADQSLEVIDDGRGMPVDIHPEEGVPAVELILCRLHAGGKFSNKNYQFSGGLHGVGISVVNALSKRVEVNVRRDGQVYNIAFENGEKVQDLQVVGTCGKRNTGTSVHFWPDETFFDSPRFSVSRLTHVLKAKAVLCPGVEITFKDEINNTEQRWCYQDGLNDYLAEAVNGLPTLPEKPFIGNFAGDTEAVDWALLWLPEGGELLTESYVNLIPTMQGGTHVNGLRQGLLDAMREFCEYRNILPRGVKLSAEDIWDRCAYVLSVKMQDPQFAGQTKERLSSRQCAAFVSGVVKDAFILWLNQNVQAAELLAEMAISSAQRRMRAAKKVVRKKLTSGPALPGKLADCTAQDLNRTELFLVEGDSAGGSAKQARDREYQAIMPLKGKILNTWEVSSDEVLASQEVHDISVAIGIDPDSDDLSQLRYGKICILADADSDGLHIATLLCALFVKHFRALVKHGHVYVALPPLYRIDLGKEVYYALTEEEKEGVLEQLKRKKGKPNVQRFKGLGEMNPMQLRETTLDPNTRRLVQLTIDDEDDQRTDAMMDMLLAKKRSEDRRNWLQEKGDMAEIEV
Procedure: (§1) Relaxation assays by E. coli DNA topoisomerase IV and the ATPase assays were performed. […] Lane 1 is supercoiled plasmid pAB1. […] The supercoiled, fluorescently-labeled plasmid pAB1_FL905 was used.

[4] = molecular target: T2, E. coli DNA topoisomerase IV; test: SDFQ-based DNA relaxation assay with E. coli DNA topoisomerase IV; type: biochemical
Procedure: as §1

[5] = test system: E. coli imp; test: microbe, parasite or virus in culture; details: Escherichia coli, read-out: MIC E. coli imp BAS3023
Procedure: (§2) Antibacterial minimum inhibitory concentrations (MICs) were obtained from three independent experiments using broth microdilution methods in 96-well plates according to Clinical and Laboratory Standards Institute guidelines. Cells were culture from singles colonies in MHIIB medium for 24 h at 37° C. in agitation (200 RPM). The cultures were then diluted using the same media to reach an OD600 of 0.1. Then, 50 µL of the diluted cultures were added to the plates holding 50 µL of serially diluted compounds in MHIIB. The plates were incubated at 37° C. for 20 h. The starting inoculum was fixated to 10^5 colony-forming units per ml.

[6] = test system: E. coli (ATCC 25922); test: Minimum inhibitory concentration, broth microdilution; details: Escherichia coli
Procedure: as §2

[7] = test system: S. aureus (ATCC 14775); test: as above; details: Staphylococcus aureus
[8] = test system: MRSA; test: as above; details: Staphylococcus aureus
[9] = test system: B. subtilis (ATCC 6633); test: as above; details: Bacillus subtilis
[10] = molecular target: T1, E. coli DNA gyrase; test: biochemical; type: biochemical
[11] = molecular target: T1, E. coli DNA gyrase; test: E. coli DNA gyrase ATPase assay; type: biochemical
Procedure: E. coli DNA gyrase ATPase assays were performed in 60 µL of 1 ×gyrase ATPase buffer (10 mM Tris.HCl (pH 7.5), 0.2 mM EDTA, 1 mM magnesium chloride, 1 mM DTT, and 2% (w/v) glycerol) containing 50 nM E. coli DNA gyrase, 200 ng rx pAB1, 0.8 mM Phosphoenol pyruvate, 1.2 units of Pyruvate kinase, 1.7 units of lactate dehydrogenase, and 0.4 mM of NADH at 37° C. After the reaction mixtures are incubated on ice for 5 minutes, 2 mM of ATP is added to initiate the reaction. Absorbance at OD340nm is monitored for up to 30 minutes at 37° C. in a spectrophotometer.

[12] = molecular target: Mtb DNA gyrase (Mycobacterium tuberculosis (strain ATCC 25618 / H37Rv), UniProt P9WG45+P9WG47); test: Mtb DNA gyrase inhibition assay (gel-based); type: biochemical
Procedure: The IC50 against E. coli (A) and Mtb (C) gyrase were determined using the gel-based gyrase inhibition assays. The gyrase mediated DNA cleavage assays (B and D) were performed using pBR322. (A) 229 inhibits E. coli gyrase. Lane 1, rx pAB1. […] Lane 1, rx pAB1. […] 100 µM of CPDs were used. Symbols rx, nk, In, and sc represent relaxed, nicked, linear, and supercoiled DNA, respectively.
Agarose gel-based DNA gyrase inhibition assays were performed in 30 µL of 1 ×gyrase buffer (35 mM Tris-HCl, 24 mM KCl, 4 mM MgCl2, 2 mM DTT, 1.75 mM ATP, 0.1 mg/mL BSA, 6.5% glycerol, pH7.5) containing 400 ng of rx pAB1 at 37° C. 100 ng of DNA gyrase was used to supercoil the rx pAB1 in the presence of different concentrations of a gyrase inhibitor. After 15 minutes of incubation with the inhibitor at 37° C., all reactions were stopped with 1 µL of stop solution (3% SDS and 250 mM EDTA). Samples were analyzed by electrophoresis in 1% w/v agarose gels followed by ethidium bromide staining and photographed under UV light.

[13] = test system: Mtb; test: Mtb whole cell assay (% inhibition, MIC); type: cell-based, Mycobacterium tuberculosis; details: Mycobacterium tuberculosis
[14] = in vitro; details: mouse
[15] = in vitro; details: human
[16] = molecular target: T1, E. coli DNA gyrase; test: DNA gyrase mediated DNA cleavage assay; type: biochemical; details: pBR322
Procedure: 250 ng of supercoiled pBR322 plasmid were incubated with 50 nM of E. coli DNA gyrase in reactions containing 35 mM Tris-HCl, 24 mM KCl, 4 mM MgCl2, 2 mM DTT, 0.1 mg/mL BSA, 6.5% glycerol, and 1.75 mM ATP, in presence of 200 µM of compounds, at 37° C. for 15 min. Then, 0.2% (w/v) of SDS and 0.1 mg/mL proteinase K were added, and samples were incubated at 37° C. for 1 h. […] Samples were examined by electrophoresis in 1% w/v agarose gel containing 0.5 µg/mL ethidium bromide and photographed under UV light.

[17] = test system: M. abscessus; test: MIC against M. abscessus; type: cell-based, Mycobacterium abscessus; details: Mycobacteroides abscessus
[18] = ATCC25922, read-out: MIC E coli ATCC 25922, Table 9
[19] = ATCC14775, read-out: MIC S. aureus ATCC 14775
[20] = ATCC33591 / MRSA, read-out: MIC MRSA ATCC 33591
[21] = ATCC6633, read-out: MIC B. subtilis ATCC 6633
[22] = ATCC14775, read-out: Minimum Inhibitory Concentration S.aureus
[23] = MRSA, read-out: Minimum Inhibitory Concentration S.aureus MRSA
[24] = ATCC6633, read-out: Minimum Inhibitory Concentration B.subtilis
[25] = Table 10, read-out: IC50 (µM) Mtb gyrase
[26] = ATCC25922, read-out: MIC (µM) Ec, E. coli strain ATCC25922
[27] = ATCC14775, read-out: MIC (µM) Sa

## CCCCOC(=O)c1cc(O)c(O)c(O)c1 [Butyl gallate, butyl gallate]
[1]
  IC50: > 100 µM
[2]
  IC50: > 100 µM
[3]
  IC50: > 100 µM
[4]
  IC50: > 100 µM
[5]
  MIC: > 200 µM
[6]; [18]
  MIC: > 200 µM
[7]; [19]
  MIC: > 200 µM
[8]; [20]
  MIC: > 200 µM
[9]; [21]
  MIC: > 64 µg/mL and > 200 µM

## Cc1c(CCC(=O)O)c(=O)oc2c(C)c3occ(-c4ccc(Br)cc4)c3cc12 [Compound 48]
[1]; 50 µM of compounds
  inhibition of E. coli DNA gyrase activities: completely inhibited
[1]; 200 µM of compounds
  inhibition of E. coli DNA gyrase activities: completely inhibited
[10]
  inhibition of E. coli DNA gyrase activities: potent bacterial DNA gyrase inhibitors
[10]; Table 5, E. coli gyrase, read-out: IC50 (µM) EC
  IC50: 4.2 µM
[11]
  Ki: 0.15 µM
[11]; AB-MECA and gallates at 100 µM
  inhibition of the ATPase activities of E. coli DNA gyrase: ATP competitive inhibitor
[12]; Table 5, Mtb gyrase, read-out: IC50 (µM) Mtb
  IC50: 57 µM
[13]; Table 5 (same values in Table 6 at 20 µM)
  inhibition at 20 µM: 38.6%
[7]; ATCC14775, read-out: MIC (µM) SA
  MIC: 3.1 µM (≈ 1.37 µg/mL)
[7]; [22]
  MIC: 3.12 µM (≈ 1.38 µg/mL)
[8]; MRSA, read-out: MIC (µM) MRSA
  MIC: 3.1 µM
[8]; [23]
  MIC: 3.12 µM

## O=C(O)c1ccc(/N=N/C2C(O)=Nc3ccc(F)cc32)cc1 (stereo not drawn) [Compound 127]
[1]; 50 µM of compounds
  inhibition of E. coli DNA gyrase activities: completely inhibited
[14]
  IC50: > 200 µM
[15]
  IC50: > 200 µM
[7]; [22]
  MIC: 50 µM (≈ 15 µg/mL)
[8]; [23]
  MIC: 50 µM
[9]; [24]
  MIC: 25 µM (≈ 7.48 µg/mL)

## Cc1cccc2c1N=C(O)C2/N=N/c1ccc(C(=O)O)cc1 (stereo not drawn) [Compound 128]
[1]; 50 µM of compounds
  inhibition of E. coli DNA gyrase activities: completely inhibited
[14]
  IC50: > 200 µM
[15]
  IC50: > 200 µM
[7]; [22]
  MIC: 50 µM (≈ 14.8 µg/mL)
[8]; [23]
  MIC: 50 µM
[9]; [24]
  MIC: 25 µM (≈ 7.38 µg/mL)

## O=C(O)CCNc1ccc(NCCC(=O)O)c2c1C(=O)c1ccccc1C2=O [Compound 173, 3-({4-[(2-carboxyethyl)amino]-9,10-dioxo-9,10-dihydroanthracen-1-yl}amino)propanoic acid]
[1]; 50 µM of compounds
  inhibition of E. coli DNA gyrase activities: completely inhibited
[10]; IC50 (15-[…] µM), bin of Table 2
  IC50: 15 to 25 µM
[16]
  E. coli DNA gyrase-mediated DNA breaks and nicking: cause DNA nicking
[8]; [23]
  MIC: 100 µM

## CCN(CC)c1ccc(C=C2SC(=S)NC2=O)cc1 [Compound 212]
[1]; 50 µM of compounds
  inhibition of E. coli DNA gyrase activities: completely inhibited
[1]; 200 µM of compounds
  inhibition of E. coli DNA gyrase activities: completely inhibited
[10]; IC50 ([…]-50 µM), bin of Table 2
  IC50: 25 to 50 µM
[14]
  IC50: > 200 µM
[15]
  IC50: > 200 µM

## O=C1C=C(NCCc2cc(Br)c(O)c(Br)c2)C(=O)c2ncccc21 [Compound 232, 7-((2-(3,5-Dibromo-4-hydroxyphenyl)ethyl)amino)-5,8-quinolinedione]
[1]; 50 µM of compounds
  inhibition of E. coli DNA gyrase activities: inhibited
[1]; 200 µM of compounds
  inhibition of E. coli DNA gyrase activities: completely inhibited
[10]; IC50 (50-200 µM), bin of Table 2
  IC50: 50 to 200 µM
[16]
  E. coli DNA gyrase-mediated DNA breaks and nicking: cause DNA nicking

## C[n+]1c(-c2ccc(/C=N/NC(=O)c3cccc(C(=O)N/N=C/c4ccc(-c5cn6ccccc6[n+]5C)cc4)c3)cc2)cn2ccccc21 [Compound 259]
[12]; [25]
  IC50: 2.6 µM
[13]
  MIC: > 200 µM
[17]
  MIC: > 200 µM
[15]
  IC50: > 200 µM
[6]; [26]
  MIC: > 200 µM
[7]; [27]
  MIC: 200 µM

## C[n+]1c(-c2ccc(/C=N/NC(=O)c3cncc(C(=O)N/N=C/c4ccc(-c5cn6ccccc6[n+]5C)cc4)c3)cc2)cn2ccccc21 [Compound 260]
[12]; [25]
  IC50: 92 µM
[13]
  MIC: > 200 µM
[17]
  MIC: > 200 µM
[15]
  IC50: > 200 µM
[6]; [26]
  MIC: > 200 µM
[7]; [27]
  MIC: > 200 µM

## CCCCSc1ccn2cc(-c3ccc(/C=N/NC(=O)c4ccc(C(=O)N/N=C/c5ccc(-c6cn7ccc(SCCCC)cc7[n+]6C)cc5)cc4)cc3)[n+](C)c2c1 [Compound 262]
[12]; [25]
  IC50: 118 µM
[13]
  MIC: 122 µM
[17]
  MIC: > 200 µM
[15]
  IC50: > 200 µM
[6]; [26]
  MIC: > 200 µM
[7]; [27]
  MIC: > 200 µM

## C[n+]1c(-c2ccc(/C=N/NC(=O)c3ccc(C(=O)N/N=C/c4ccc(-c5cn6ccccc6[n+]5C)cc4)nc3)cc2)cn2ccccc21 [Compound 264]
[12]; [25]
  IC50: 2.1 µM
[13]
  MIC: 6.2 µM
[17]
  MIC: 13.5 µM
[15]
  IC50: > 200 µM
[7]; [27]
  MIC: 100 µM

## CCCCCCCCCCCCOC(=O)c1cc(O)c(O)c(O)c1 [Dodecyl gallate, dodecyl gallate]
[1]
  IC50: 15 µM
[2]
  IC50: 13.8 µM
[3]
  inhibition of E. coli DNA topoisomerase IV: strongly inhibit
  IC50: 50 µM
[4]
  IC50: 36.9 µM
[5]
  MIC: 200 µM (≈ 67.7 µg/mL)
[6]; [18]
  MIC: > 200 µM
[7]; [19]
  MIC: 67.7 µg/mL and 200 µM
[8]; [20]
  MIC: 200 µM
[9]; [21]
  MIC: 8 µg/mL and 25 µM to 50 µM

## CO[C@@H]1[C@@H](OC(N)=O)[C@@H](O)[C@H](Oc2ccc3c(O)c(NC(=O)c4ccc(O)c(CC=C(C)C)c4)c(=O)oc3c2C)OC1(C)C [Novobiocin, novobiocin, reference compound]
[5]
  MIC: 6.25 µM (≈ 3.83 µg/mL)
[6]; [18]
  MIC: 158 µM
[7]; [19]
  MIC: < 6.25 µM
[8]; [20]
  MIC: < 6.25 µM
[9]; [21]
  MIC: < 625 µM

## CCCCCCCCOC(=O)c1cc(O)c(O)c(O)c1 [Octyl gallate, octyl gallate]
[1]
  IC50: 50 µM
[2]
  IC50: 26 µM
[3]
  inhibition of E. coli DNA topoisomerase IV: strongly inhibit
  IC50: 50 µM
[4]
  IC50: 41.2 µM
[5]
  MIC: 50 µM (≈ 14.1 µg/mL)
[6]; [18]
  MIC: > 200 µM
[6]; ATCC25922, read-out: MIC E. coli ATCC 25922, Table 7
  MIC: 226 mg/L
[7]; [19]
  MIC: 56.5 µg/mL and 200 µM
[8]; [20]
  MIC: 100 µM
[8]; ATCCBAA44 / MRSA, read-out: MIC S. aureus (MRSA) ATCC BAA44
  MIC: 56.5 mg/L
[9]; [21]
  MIC: 4 µg/mL and 12.5 µM to 25 µM

Reference: patent US20230364057A1, “BACTERIAL DNA GYRASE INHIBITORS AND METHODS OF USE THEREOF” (THE FLORIDA INTERNATIONAL UNIVERSITY BOARD OF TRUSTEES, priority 2022, published 2023)
